Converted amounts (≈) assume the structure as drawn. Like-named read-outs stand apart in the source and are kept apart here. Residues, ends and D or L forms follow the SMILES beside them.
How the values were obtained:
AT1 = AT1 (Homo sapiens (Human), UniProt P30556); assay: Calcium flux assay on AT1 cell line; type: cell-based; conditions: AT1/HEK293, calcium flux, angiotensin II agonist
Procedure: (§1) Test materials: a) cell line: AT1/HEK293; b) vehicles: F12, Invitrogen (Cat #11765-047); FBS, Corning (Cat #35-076-CV); Geneticin, Invitrogen (Cat #10131); c) reagent: Fluo-4 Direct, (Invitrogen, Cat #F10471); d) instruments: 384 well Poly-D-Lysine protein coating plate, Greiner #781946; Vi-cell XR Cell Viability Analyzer, Beckman Coulter; Incubator, Thermo.
For the agonist (angiotensin II) master plate, the agonist solution was diluted from 1 mM to 200 μM with the test buffer solution. […] Afterwards, 900 nL of each compound solution was transferred to the master plate and 30 μL of the test buffer solution was added. • a) The cell plate was removed from the incubator, and 20 μL of 2X Fluo-4 Direct was added by a pipette to a 384-well cell plate. • b) The cell plate was incubated at 37° C. for 50 min in the environment of 5% CO2, and then incubated at room temperature for 10 min. • c) The cell plate was removed from the incubator and placed in FLIPR. The compound plates and the tip box were placed in FLIPR. • d) Regarding the EC80 plate: • 1) Operations were conducted on […]. • 2) 10 μL of compound solution was transferred from the EC80 master plate to the cell plate. • 3) Fluorescence signals were read. • 4) The read signals were counted, and the EC80 value of each cell line was calculated using FLIPR. • 5) For the concentration of the compound plate, a solution having a concentration 6 times that of the reference agonist EC80 was formulated. • e) Regarding the compound plate: • 1) Operations were conducted on […]. • 2) 10 μL of compound was transferred to the cell plate. • 3) Fluorescence signals were read. • 4) 10 μL of solution having a concentration 6 times that of the reference agonist EC80 was transferred. • 5) Fluorescence signals were read. • f) Data analysis by Prism

ETa = ETa (Homo sapiens (Human), UniProt P25101); assay: Calcium flux assay on ETa cell line; type: cell-based; conditions: ETa/HEK293, calcium flux, endothelin-1 agonist
Sequence of ETa (P25101 21-427): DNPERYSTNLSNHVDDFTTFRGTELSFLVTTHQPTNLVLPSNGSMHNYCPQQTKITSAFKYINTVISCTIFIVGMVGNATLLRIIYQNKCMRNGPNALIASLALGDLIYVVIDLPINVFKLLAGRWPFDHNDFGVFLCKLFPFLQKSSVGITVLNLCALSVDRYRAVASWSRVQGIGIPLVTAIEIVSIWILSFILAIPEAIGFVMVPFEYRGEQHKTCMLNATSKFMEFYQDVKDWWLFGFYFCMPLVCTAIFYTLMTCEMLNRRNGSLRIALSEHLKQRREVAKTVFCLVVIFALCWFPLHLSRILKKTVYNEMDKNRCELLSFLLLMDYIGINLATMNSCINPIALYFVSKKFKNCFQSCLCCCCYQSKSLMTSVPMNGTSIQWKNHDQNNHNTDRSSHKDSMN
Procedure: as §1, with “ETa/HEK293;” for “AT1/HEK293;”, “DMEM,” for “F12,”, “#11960);” for “#11765-047); FBS, Corning (Cat #35-076-CV);”
For the employed agonist endothelin factor (endothelin-1, ET-1) master plate: the agonist was diluted from 50 μM to 15 μM with the test buffer solution.
For antagonist (BQ123, Am J Physiol. 1994 April; 266 (4 Pt 2): H1327-31.) plates and the compound plates: the antagonist and the tested compounds were diluted with DMSO at a gradient ratio of 1:4 to obtain 10 concentration points. Afterwards, 900 nL of each compound solution was transferred to the master plate and 30 μL of the test buffer solution was added. • a) The cell line was removed from the incubator, and 20 μL of 2X Fluo-4 Direct™ buffer solution was added gently by a pipette to a 384-well cell culture plate. • b) The cell plate was incubated at 37° C. for 50 min in the environment of 5% CO2, and then incubated at room temperature for 10 min. • c) The cell plate was removed from the incubator and placed in FLIPR. The compound plates and the tip box were placed in FLIPR. • d) Regarding the EC80 plate: • 1) Operations were conducted on […]. • 2) 10 μL of compound solution was transferred from the EC80 master plate to the cell plate. • 3) Fluorescence signals were read. • 4) The read signals were counted, and the EC80 value of each cell line was calculated using FLIPR. • 5) For the concentration of the compound plate, a solution having a concentration 6 times that of the reference agonist EC80 was formulated. • e) Regarding the compound plate: • 1) Operations were conducted on […]. • 2) 10 μL of compound was transferred to the cell plate. • 3) Fluorescence signals were read. • 4) 10 μL of solution having a concentration 6 times that of the reference agonist EC80 was transferred to the cell plate. • 5) Fluorescence signals were read. • f) Data analysis by Prism

[1] = Experiment on water solubility (HPLC-UV); type: physicochemical
Procedure: The detection was carried out in accordance with the high performance liquid chromatography (General Principles 0512 of Chinese Pharmacopoeia Volume IV (2020)):
Chromatographic conditions for the HPLC-UV method: mobile phase: 0.02 M KH2PO4 aqueous solution-acetonitrile (90:10), gradient elution; chromatographic column: C18; detection wavelength: 210 nm. The water solubility was calculated based on the peak area by the external standard method.

Sequence of AT1 (P30556 whole entry): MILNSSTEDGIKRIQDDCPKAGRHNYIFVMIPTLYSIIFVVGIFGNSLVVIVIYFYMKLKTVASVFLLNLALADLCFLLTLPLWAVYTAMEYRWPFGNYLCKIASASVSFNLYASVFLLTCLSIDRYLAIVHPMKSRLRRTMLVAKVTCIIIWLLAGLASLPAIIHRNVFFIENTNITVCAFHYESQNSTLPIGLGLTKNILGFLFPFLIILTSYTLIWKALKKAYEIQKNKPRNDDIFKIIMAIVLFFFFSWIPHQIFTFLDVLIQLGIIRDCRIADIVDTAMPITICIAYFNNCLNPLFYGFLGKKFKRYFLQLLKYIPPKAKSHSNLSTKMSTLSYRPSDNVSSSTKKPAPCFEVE

IC50 (AT1; read-out: IC50 against AT1) [nM]	IC50 (ETa; read-out: IC50 against ETa) [nM]	solubility ([1]; aqueous medium at pH 7.4 (buffer not named), pH 7.4, aqueous buffer, pH7.4, read-out: Solubility pH7.4) [µg/mL]	solubility ([1]; pH 1.6, fassgf or other biorelevant, FaSSGF (pH1.6), read-out: Solubility FaSSGF (pH1.6)) [µg/mL]	solubility ([1]; pH 5, FeSSIF (pH5.0), read-out: Solubility FeSSIF (pH5.0)) [µg/mL]	solubility ([1]; pH 6.5, FaSSIF (pH6.5), read-out: Solubility FaSSIF (pH6.5)) [µg/mL]	IC50 (AT1; read-out: IC50 activity against AT1 (class)) [nM]	SMILES	IC50 (ETa; read-out: IC50 activity against ETa (class)) [nM]
2.9	24.6	370 (≈ 612 µM)	> 1000	200 (≈ 331 µM)	610 (≈ 1010 µM)		CCCCC1=NC2(CC3(CC3)C2)C(=O)N1Cc1ccc(-c2ccccc2S(=O)(=O)Nc2noc(C)c2C)c(COCC)c1 [Example 1]	
258	17.6						CCCCC1=N[C@]2(C[C@H]3C[C@H]3C2)C(=O)N1Cc1ccc(-c2ccccc2S(=O)(=O)Nc2noc(C)c2C)c(CN(C)C(=O)CC(C)(C)C)c1 [Example 6]	
4.78	132					1 to 10	CCCCC1=N[C@]2(C[C@H]3C[C@H]3C2)C(=O)N1Cc1ccc(-c2ccccc2S(=O)(=O)Nc2noc(C)c2C)c(COCC)c1 [Example 4]	

SMILES	IC50 (AT1; read-out: IC50 against AT1) [nM]	IC50 (ETa; read-out: IC50 against ETa) [nM]	solubility ([1]; aqueous medium at pH 7.4 (buffer not named), pH 7.4, aqueous buffer, pH7.4, read-out: Solubility pH7.4) [µg/mL]	solubility ([1]; pH 1.6, fassgf or other biorelevant, FaSSGF (pH1.6), read-out: Solubility FaSSGF (pH1.6)) [µg/mL]	solubility ([1]; pH 5, FeSSIF (pH5.0), read-out: Solubility FeSSIF (pH5.0)) [µg/mL]	solubility ([1]; pH 6.5, FaSSIF (pH6.5), read-out: Solubility FaSSIF (pH6.5)) [µg/mL]	IC50 (AT1; read-out: IC50 activity against AT1 (class)) [nM]	IC50 (ETa; read-out: IC50 activity against ETa (class)) [nM]
CC(C)C[C@@H]1NC(=O)[C@@H](C(C)C)NC(=O)[C@@H]2CCCN2C(=O)[C@@H](CC(=O)O)NC(=O)[C@@H](Cc2c[nH]c3ccccc23)NC1=O [BQ123, reference compound] (HELM PEPTIDE1{L.[dW].[dD].P.[dV]}$PEPTIDE1,PEPTIDE1,1:R1-5:R2$$$V2.0)		2.56						1 to 10
